IC50 data for nine compounds are collected here from ChEMBL document CHEMBL5523749, “Amphiphilic Heparinoids as Potent Antiviral Agents against SARS-CoV-2” (J Med Chem, 2024).

Test [1] has as its system SARS-CoV-2. Briefly: microbe, parasite or virus in culture. To be noted: Severe acute respiratory syndrome coronavirus 2, D614, Vero C1008.
Description: Antiviral activity against SARS-CoV-2 D614 isolates infected in African green monkey Vero E6 cells assessed as reduction in plaque formation treated for 1 hr prior to infection with cells incubated for 30 mins by plaque reduction neutralization test
The test system of test [2] is SARS-CoV-2. In kind it is functional, organism-based, Severe acute respiratory syndrome coronavirus 2, G614, Vero E6.
Where [3] appears, read: Severe acute respiratory syndrome coronavirus 2, G614, Vero C1008, read-out: IC50.

Converted amounts (≈) assume the structure as drawn.

Regarding `CC(C)CCC[C@@H](C)[C@H]1CC[C@H]2[C@@H]3CC[C@H]4C[C@@H](O[C@@H]5O[C@@H](COS(=O)(=O)O)[C@@H](O[C@@H]6O[C@@H](COS(=O)(=O)O)[C@@H](O[C@@H]7O[C@@H](COS(=O)(=O)O)[C@@H](O[C@@H]8O[C@@H](COS(=O)(=O)O)[C@@H](OS(=O)(=O)O)[C@H](O)[C@H]8OS(=O)(=O)O)[C@H](O)[C@H]7OS(=O)(=O)O)[C@H](O)[C@H]6OS(=O)(=O)O)[C@H](O)[C@H]5OS(=O)(=O)O)CC[C@]4(C)[C@H]3CC[C@]12C`, in the test on SARS-CoV-2 [1], the concentration for half-maximal inhibition (IC50) was 27.5 µg/mL (≈ 15.6 µM).

With `CC(C)CCC[C@@H](C)[C@H]1CC[C@H]2[C@@H]3CC[C@H]4C[C@@H](O[C@@H]5O[C@H](COS(=O)(=O)[O-])[C@@H](O[C@H]6O[C@H](COS(=O)(=O)[O-])[C@@H](O[C@H]7O[C@H](COS(=O)(=O)[O-])[C@@H](O[C@H]8O[C@H](COS(=O)(=O)[O-])[C@@H](O[C@H]9O[C@H](COS(=O)(=O)[O-])[C@@H](O[C@H]%10O[C@H](COS(=O)(=O)[O-])[C@@H](OS(=O)(=O)[O-])[C@H](OS(=O)(=O)[O-])[C@H]%10OS(=O)(=O)[O-])[C@H](OS(=O)(=O)[O-])[C@H]9OS(=O)(=O)[O-])[C@H](OS(=O)(=O)[O-])[C@H]8OS(=O)(=O)[O-])[C@H](OS(=O)(=O)[O-])[C@H]7OS(=O)(=O)[O-])[C@H](OS(=O)(=O)[O-])[C@H]6OS(=O)(=O)[O-])[C@H](OS(=O)(=O)[O-])[C@H]5OS(=O)(=O)[O-])CC[C@]4(C)[C@H]3CC[C@]12C.[Na+].[Na+].[Na+].[Na+].[Na+].[Na+].[Na+].[Na+].[Na+].[Na+].[Na+].[Na+].[Na+].[Na+].[Na+].[Na+].[Na+].[Na+].[Na+]`, the values for the IC50 in the test on SARS-CoV-2 [1] and in the test on SARS-CoV-2 [2] (setting [3]) were 11.9 µg/mL and 65.9 µg/mL, respectively.

Regarding `C#CCNC(=O)CC[C@@H](C)[C@H]1CC[C@H]2[C@@H]3CC[C@@H]4C[C@H](O[C@@H]5O[C@H](COS(=O)(=O)[O-])[C@@H](O[C@H]6O[C@H](COS(=O)(=O)[O-])[C@@H](O[C@H]7O[C@H](COS(=O)(=O)[O-])[C@@H](O[C@H]8O[C@H](COS(=O)(=O)[O-])[C@@H](OS(=O)(=O)[O-])[C@H](OS(=O)(=O)[O-])[C@H]8OS(=O)(=O)[O-])[C@H](OS(=O)(=O)[O-])[C@H]7OS(=O)(=O)[O-])[C@H](OS(=O)(=O)[O-])[C@H]6OS(=O)(=O)[O-])[C@H](OS(=O)(=O)[O-])[C@H]5OS(=O)(=O)[O-])CC[C@]4(C)[C@H]3CC[C@]12C.[Na+].[Na+].[Na+].[Na+].[Na+].[Na+].[Na+].[Na+].[Na+].[Na+].[Na+].[Na+].[Na+]`, the IC50 in the test with SARS-CoV-2 [1] was 85.3 µg/mL; in the test on SARS-CoV-2 [2] (vero e6), “Not Active”.

For the compound `CC(C)CCC[C@@H](C)[C@H]1CC[C@H]2[C@@H]3CC[C@H]4C[C@@H](OCc5cn(CCCO[C@@H]6O[C@H](COS(=O)(=O)[O-])[C@@H](O[C@H]7O[C@H](COS(=O)(=O)[O-])[C@@H](O[C@H]8O[C@H](COS(=O)(=O)[O-])[C@@H](O[C@H]9O[C@H](COS(=O)(=O)[O-])[C@@H](OS(=O)(=O)[O-])[C@H](OS(=O)(=O)[O-])[C@H]9OS(=O)(=O)[O-])[C@H](OS(=O)(=O)[O-])[C@H]8OS(=O)(=O)[O-])[C@H](OS(=O)(=O)[O-])[C@H]7OS(=O)(=O)[O-])[C@H](OS(=O)(=O)[O-])[C@H]6OS(=O)(=O)[O-])nn5)CC[C@]4(C)[C@H]3CC[C@]12C.[Na+].[Na+].[Na+].[Na+].[Na+].[Na+].[Na+].[Na+].[Na+].[Na+].[Na+].[Na+].[Na+]`, the values for the concentration for half-maximal inhibition (IC50) in the test with SARS-CoV-2 [1] and with SARS-CoV-2 [2] (setting [3]) were 115 µg/mL and 310 µg/mL, respectively.

In the case of `O=C(CCCCCCCCCCn1cc(CNc2ccc([N+](=O)[O-])c3nonc23)nn1)NCCCCCCCCCCCO[C@@H]1O[C@H](COS(=O)(=O)[O-])[C@@H](O[C@H]2O[C@H](COS(=O)(=O)[O-])[C@@H](O[C@H]3O[C@H](COS(=O)(=O)[O-])[C@@H](O[C@H]4O[C@H](COS(=O)(=O)[O-])[C@@H](OS(=O)(=O)[O-])[C@H](OS(=O)(=O)[O-])[C@H]4OS(=O)(=O)[O-])[C@H](OS(=O)(=O)[O-])[C@H]3OS(=O)(=O)[O-])[C@H](OS(=O)(=O)[O-])[C@H]2OS(=O)(=O)[O-])[C@H](OS(=O)(=O)[O-])[C@H]1OS(=O)(=O)[O-].[Na+].[Na+].[Na+].[Na+].[Na+].[Na+].[Na+].[Na+].[Na+].[Na+].[Na+].[Na+].[Na+]`, the IC50 with SARS-CoV-2 [1] was 166 µg/mL; with SARS-CoV-2 [2] (vero e6) it was “Not Active”.

Regarding `CC(C)CCC[C@@H](C)[C@H]1CC[C@H]2[C@@H]3CC[C@H]4C[C@@H](O[C@@H]5O[C@@H](COS(=O)(=O)O)[C@@H](O[C@@H]6O[C@@H](COS(=O)(=O)O)[C@@H](OS(=O)(=O)O)[C@H](O)[C@H]6OS(=O)(=O)O)[C@H](O)[C@H]5OS(=O)(=O)O)CC[C@]4(C)[C@H]3CC[C@]12C`, the half-inhibitory concentration (IC50) in the test with SARS-CoV-2 [1] stood at 32.1 µg/mL (≈ 28.8 µM).

As for `CCCCCCCCCCCCCCCCCC(=O)NCCCO[C@@H]1O[C@H](COS(=O)(=O)[O-])[C@@H](O[C@H]2O[C@H](COS(=O)(=O)[O-])[C@@H](O[C@H]3O[C@H](COS(=O)(=O)[O-])[C@@H](O[C@H]4O[C@H](COS(=O)(=O)[O-])C(S(=O)(=O)[O-])[C@H](OS(=O)(=O)[O-])[C@H]4OS(=O)(=O)[O-])[C@H](OS(=O)(=O)[O-])[C@H]3OS(=O)(=O)[O-])[C@H](OS(=O)(=O)[O-])[C@H]2OS(=O)(=O)[O-])[C@H](OS(=O)(=O)[O-])[C@H]1OS(=O)(=O)[O-].[Na+].[Na+].[Na+].[Na+].[Na+].[Na+].[Na+].[Na+].[Na+].[Na+].[Na+].[Na+].[Na+]` (stereo not given in full), the values for the half-inhibitory concentration (IC50) in the test on SARS-CoV-2 [1] and with SARS-CoV-2 [2] (setting [3]) were 19.5 µg/mL and 70.8 µg/mL, respectively.

The compound `CC(C)CCC[C@@H](C)[C@H]1CC[C@H]2[C@@H]3CC[C@H]4C[C@@H](O[C@@H]5O[C@@H](C(=O)O)[C@@H](O[C@@H]6O[C@@H](C(=O)O)[C@@H](O[C@@H]7O[C@@H](C(=O)O)[C@@H](O[C@@H]8O[C@@H](C(=O)O)[C@@H](OS(=O)(=O)O)[C@H](O)[C@H]8OS(=O)(=O)O)[C@H](O)[C@H]7OS(=O)(=O)O)[C@H](O)[C@H]6OS(=O)(=O)O)[C@H](O)[C@H]5OS(=O)(=O)O)CC[C@]4(C)[C@H]3CC[C@]12C` returned a 50% inhibitory concentration (IC50) in the test with SARS-CoV-2 [1] of 48.5 µg/mL (≈ 32.5 µM).

With `CC(C)CCC[C@@H](C)[C@H]1CC[C@H]2[C@@H]3CC[C@H]4C[C@@H](O[C@H]5O[C@H](COS(=O)(=O)[O-])[C@@H](O[C@H]6O[C@H](COS(=O)(=O)[O-])[C@@H](O[C@H]7O[C@H](COS(=O)(=O)[O-])[C@@H](O[C@H]8O[C@H](COS(=O)(=O)[O-])[C@@H](OS(=O)(=O)[O-])[C@H](OS(=O)(=O)[O-])[C@H]8OS(=O)(=O)[O-])[C@H](OS(=O)(=O)[O-])[C@H]7OS(=O)(=O)[O-])[C@H](OS(=O)(=O)[O-])[C@H]6OS(=O)(=O)[O-])[C@H](OS(=O)(=O)[O-])[C@H]5OS(=O)(=O)[O-])CC[C@]4(C)[C@H]3CC[C@]12C.[Na+].[Na+].[Na+].[Na+].[Na+].[Na+].[Na+].[Na+].[Na+].[Na+].[Na+].[Na+].[Na+]`, the half-inhibitory concentration (IC50) in the test with SARS-CoV-2 [1] was 148 µg/mL; with SARS-CoV-2 [2] (vero e6), “Not Active”.
